The nature of data set [1]: Half life by its biological oxidation in presence of human liver microsomes. It is filed as ADME, Microsome.
Data set [2] in a line: Half life by its biological oxidation in presence of horse radish […]. The data set is classed as ADME. Conditions: horseradish, horseradish peroxidase.

Data on 3 molecules can be found in ChEMBL document CHEMBL1147443, “Regioselective oxidation of 2-amino-3-aroyl-4,5-dialkylthiophenes by DMSO” (Bioorg Med Chem Lett, 2004).

SMILES strings stand for the structures.

As for `Nc1sc2c(c1C(=O)c1ccc3ccccc3c1)CCCC2`, the figures for the half-life in data set [1] and in data set [2] were less than 1 min and 1.33 min, respectively.
For `Cc1sc(N)c(C(=O)c2cccc(C(F)(F)F)c2)c1C`, the half-life in data set [1] and in data set [2] was less than 1 min in each case.
Consider `Nc1sc2c(c1C(=O)c1ccc(-c3ccccc3)cc1)CCCC2`, for which the half-life in data set [1] and in data set [2] was less than 1 min each time.
